This note sets out measurements from paper PMC8036738, “Evaluation of Selective COX-2 Inhibition and In Silico Study of Kuwanon Derivatives Isolated from Morus alba” (International Journal of Molecular Sciences, 2021).

Assay type in all cases: biochemical, ovine
Assay [1] deals with COX-2. In words: in vitro COX-2 enzyme inhibition assay (fluorometric inhibitor screening kit). As to the method:
(§1) Dimethyl sulfoxide (DMSO) and COX-1/2 Inhibitor Screening Kit (BioVison, California, CA, USA) were used according to the manufacturer’s instructions. All other reagents used were of the highest purity commercially available. All samples were dissolved in DMSO at a concentration of 100 mM.
(§2) The ability of the test compounds to inhibit COX-1 and COX-2 isoenzymes in vitro was determined using a Biovision fluorometric COX-1/-2 inhibitor screening assay kit. Briefly, the COX assay buffer (75 μL), COX cofactor working solution (2 μL), COX probe solution (1 μL), recombinant COX-1 or COX-2 (1 μL), arachidonic acid/NaOH solution (10 μL), and test solution (10 μL) were mixed in a 96-well plate, and the fluorescence kinetics were measured for 10 min at 25 °C. […] Fluorescence was measured using a microplate spectrophotometer (Bio-Tek, Winooski, VT, USA). Two points (T1 and T2) in the linear range of the plot were used to obtain the corresponding fluorescence values (RFU1 and RFU2). Then, the slope for all samples (S) was calculated by dividing the net ΔRFU (RFU2 − RFU1) values by the time ΔT (T2 − T1) using the following equation: Relative inhibition (%) = ((slope of the enzyme control − slope of S)/(slope of the enzyme control)) × 100.
(§3) The samples were evaluated in triplicates at five different concentrations.

The next assay deals with T1, COX-1 (Ovis aries, UniProt P05979).
T1 construct: purchased BioVision
T1 sequence (P05979 25-600): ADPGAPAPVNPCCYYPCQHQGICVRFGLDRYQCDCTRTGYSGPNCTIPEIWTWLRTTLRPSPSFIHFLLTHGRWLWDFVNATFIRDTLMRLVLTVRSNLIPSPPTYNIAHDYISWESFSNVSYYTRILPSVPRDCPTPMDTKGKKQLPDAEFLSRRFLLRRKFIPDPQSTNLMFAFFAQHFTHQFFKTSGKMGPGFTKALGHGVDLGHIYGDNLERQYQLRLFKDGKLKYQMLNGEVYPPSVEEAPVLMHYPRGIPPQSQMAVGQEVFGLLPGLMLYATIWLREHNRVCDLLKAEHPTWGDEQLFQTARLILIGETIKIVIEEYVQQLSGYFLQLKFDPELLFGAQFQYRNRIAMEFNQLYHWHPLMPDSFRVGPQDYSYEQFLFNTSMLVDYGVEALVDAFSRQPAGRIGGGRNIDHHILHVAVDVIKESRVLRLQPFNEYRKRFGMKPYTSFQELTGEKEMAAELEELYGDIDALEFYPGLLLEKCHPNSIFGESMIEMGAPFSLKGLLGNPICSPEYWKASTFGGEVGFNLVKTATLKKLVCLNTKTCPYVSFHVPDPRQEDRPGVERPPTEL
In words: in vitro COX-1 enzyme inhibition assay (fluorometric inhibitor screening kit). How it is done:
as §1, §2, §3

In assay [2] the target is T2, COX-2 (Homo sapiens, UniProt P35354).
T2 sequence (P35354 18-604): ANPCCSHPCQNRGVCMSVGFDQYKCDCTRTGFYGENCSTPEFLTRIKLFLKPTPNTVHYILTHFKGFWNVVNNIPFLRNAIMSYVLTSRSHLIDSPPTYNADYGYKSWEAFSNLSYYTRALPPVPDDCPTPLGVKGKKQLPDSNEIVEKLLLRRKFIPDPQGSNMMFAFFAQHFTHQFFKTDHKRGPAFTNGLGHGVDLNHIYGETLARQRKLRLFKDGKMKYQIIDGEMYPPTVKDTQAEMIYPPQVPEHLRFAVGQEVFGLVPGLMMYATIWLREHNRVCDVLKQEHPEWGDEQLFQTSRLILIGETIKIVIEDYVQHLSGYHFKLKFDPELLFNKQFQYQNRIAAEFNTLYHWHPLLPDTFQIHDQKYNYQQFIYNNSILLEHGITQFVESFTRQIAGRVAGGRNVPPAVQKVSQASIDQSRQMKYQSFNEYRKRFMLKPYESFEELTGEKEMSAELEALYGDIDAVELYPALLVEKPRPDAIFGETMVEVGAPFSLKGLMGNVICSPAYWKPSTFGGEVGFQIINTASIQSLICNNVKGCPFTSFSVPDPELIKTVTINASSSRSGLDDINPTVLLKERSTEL
As to the kind of experiment: in vitro COX-2 enzyme inhibition assay (fluorometric inhibitor screening kit). How it is done: as §1, §2, §3

Setting [3] is: triplicates at five concentrations, read-out: IC50 COX-1.

As a reminder, the IC50 is the concentration that inhibits the measured activity by half.

The structures appear in SMILES notation. Read-outs that look alike come from different tables or passages of the source.

`CC(C)=CCc1c(-c2ccc(O)c3c2OC(C)(C)C=C3)oc2cc(O)cc(O)c2c1=O` [Kuwanon A, kuwanon A]: the “SI (selectivity index, COX-1 IC50/COX-2 IC50)” value in the assay on COX-2 [1] is recorded as over 7.1. The half-inhibitory concentration (IC50) on COX-1 (setting [3]) was over 100 µM.

As for `CC(C)=CCc1c(-c2ccc(O)cc2O)oc2c(C3C=C(C)CC(c4ccc(O)cc4O)C3C(=O)c3ccc(O)cc3O)c(O)cc(O)c2c1=O` (stereo not shown) [Kuwanon G, kuwanon G], the “COX-2 inhibition activity (in words)” value on COX-2 [2] is listed as “no COX-2 inhibition activity”. Moreover, the IC50 on COX-1 (setting [3]) was over 100 µM.

Consider `CC(C)=CCc1c(O)ccc(C(=O)C2C(c3c(O)cc(O)c4c(=O)c(CC=C(C)C)c(-c5ccc(O)cc5O)oc34)C=C(C)CC2c2ccc(O)cc2O)c1O` (stereo not shown) [Kuwanon H, kuwanon H], for which the half-maximal inhibitory concentration (IC50) on COX-1 (setting [3]) is 37 µM.

With `CC(C)=CCC/C(C)=C/Cc1cc(C2CC(=O)c3c(O)cc(O)cc3O2)c(O)cc1O` (stereo not shown) [Kuwanon E, kuwanon E], the “SI (selectivity index, COX-1 IC50/COX-2 IC50)” value in the assay with COX-2 [1] was 1.4. For the same compound, the half-maximal inhibitory concentration (IC50) on COX-1 (setting [3]) turned out to be 46 µM.

`CC(C)=CCc1c(-c2ccc(O)cc2O)oc2c(CC=C(C)C)c(O)cc(O)c2c1=O` [Kuwanon C, kuwanon C]: inhibition against COX-1 was half-maximal at 67 µM (IC50).

In the case of `CC(C)=CCc1c(-c2ccc3c(c2O)C=CC(C)(C)O3)oc2cc(O)cc(O)c2c1=O` [Kuwanon B, kuwanon B], in the assay with COX-2 [1], the “SI (selectivity index, COX-1 IC50/COX-2 IC50)” value turned out to be 1.3. Besides, the IC50 at COX-1 (setting [3]) was found to be 36 µM.
